Source: the NIST ThermoML archive (doi:10.1016/j.jct.2010.08.002)
Numbers after ± are expanded uncertainties.

Settings: for mass density: Liquid

SMILES	surface tension liquid-gas (293.15 K) [mN/m]	mass density (293.15 K) [kg/m3]	surface tension liquid-gas (298.15 K) [mN/m]	mass density (298.15 K) [kg/m3]	surface tension liquid-gas (303.15 K) [mN/m]	mass density (303.15 K) [kg/m3]	surface tension liquid-gas (308.15 K) [mN/m]	mass density (308.15 K) [kg/m3]	surface tension liquid-gas (313.15 K) [mN/m]	mass density (313.15 K) [kg/m3]	surface tension liquid-gas (318.15 K) [mN/m]	mass density (318.15 K) [kg/m3]	surface tension liquid-gas (323.15 K) [mN/m]	mass density (323.15 K) [kg/m3]	surface tension liquid-gas (328.15 K) [mN/m]	mass density (328.15 K) [kg/m3]	surface tension liquid-gas (333.15 K) [mN/m]	mass density (333.15 K) [kg/m3]	surface tension liquid-gas (338.15 K) [mN/m]	mass density (338.15 K) [kg/m3]
COP(=O)([O-])OC.Cn1cc[n+](C)c1 [1,3-dimethylimidazolium dimethylphosphate]	47.42 ± 1.6	1244 ± 5.7	47.09 ± 1.6	1242 ± 5.7	47.11 ± 1.6	1238.7 ± 5.6	46.28 ± 1.6	1234.9 ± 5.5	45.11 ± 1.6	1229.7 ± 5.5	44.44 ± 1.6	1226.8 ± 5.4	43.01 ± 1.5	1223.9 ± 5.4	42.58 ± 1.5	1218.5 ± 5.3	41.88 ± 1.5	1214.8 ± 5.2	41.33 ± 1.4	1210.4 ± 5.1
CCOP(=O)([O-])OCC.CCn1cc[n+](C)c1 [1-ethyl-3-methylimidazolium diethyl phosphate]	36.1 ± 1.3	1141.3 ± 3.9	35.88 ± 1.3	1140 ± 3.9	35.43 ± 1.3	1132.1 ± 3.8	35.3 ± 1.3	1129.7 ± 3.7	35.07 ± 1.3	1125.1 ± 3.7	34.61 ± 1.2	1120.4 ± 3.6	34.55 ± 1.2	1118 ± 3.5	34.21 ± 1.2	1112.9 ± 3.5	33.88 ± 1.2	1111.1 ± 3.4	33.75 ± 1.2	1108 ± 3
